Our source for the IC50 values is US20210221785A1, “AMINO-PYRIMIDONYL DERIVATIVES, A PROCESS FOR THEIR PREPARATION AND PHARMACEUTICAL COMPOSITIONS CONTAINING THEM” (LES LABORATOIRES SERVIER, priority 2018, published 2021).

Where a name gives a salt, the structure may show the parent alone.

In assay [1] the test system is Z138 mantle cell lymphoma tumour cell lines. The assay can be described thus: In vitro cytotoxicity, MTT assay. Type of assay: cell-based. The note with it: Homo sapiens, Z-138, 96 h, Z138 cells exposed to the test compounds for 96 hours; cell viability vs DMSO treated cells. The gist of the method: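 Z138 cells exposed to compounds for 96 hours, then MTT added for 4 hours. Viable cells quantified from formazan absorbance at 540 nm.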

Assay [2] concerns the target T1, His-His-USP7 (aa208-560, |C315A|) (Homo sapiens, UniProt Q93009, C315A).
T1 construct: His-His-USP7 (aa208-560, |C315A|); His-His (N)
Description: Evaluation of the inhibition of USP7 by the Fluorescence Intensity (FLINT) readings. Type of assay: biochemical. The note with it: 0.25 nM His-His-USP7, compound incubated 60 minutes at 30° C., 500 nM Ubiquitin-Rhodamine-110 substrate; 50% reduction in kinetic rate. The gist of the method: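 0.25 nM His-His-USP7 (aa208–560, C315A) preincubated 60 min at 30 °C with compound in 100 mM Bicine pH 8.0, 0.01% Triton X-100, 1 mM TCEP, 10% DMSO. Reaction started with 500 nM ubiquitin-rhodamine-110 and fluorescence (Ex485/Em535) read every 3 min for 21 min. IC50 derived from kinetic-rate reduction over an 11-point curve, 4-parameter fit.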

T1 sequence (Q93009 208-560 C315A): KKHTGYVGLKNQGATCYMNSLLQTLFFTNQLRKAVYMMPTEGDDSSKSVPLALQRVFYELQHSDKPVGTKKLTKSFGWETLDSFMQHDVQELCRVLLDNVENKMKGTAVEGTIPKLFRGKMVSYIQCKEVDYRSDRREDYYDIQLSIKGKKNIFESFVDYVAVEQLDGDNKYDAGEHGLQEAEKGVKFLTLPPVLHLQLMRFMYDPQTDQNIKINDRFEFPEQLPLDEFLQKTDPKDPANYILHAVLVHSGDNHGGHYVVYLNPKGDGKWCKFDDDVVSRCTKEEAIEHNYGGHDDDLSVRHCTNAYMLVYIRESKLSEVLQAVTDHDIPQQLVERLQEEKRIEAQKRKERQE

Turning to `C#C[C@]1(F)CC[C@@H](C(=O)N2CCC(O)(Cn3cnc(Oc4ccc(F)cc4)c(N)c3=O)CC2)[C@H](c2ccccc2)C1` [Example 122, 5-amino-3-({1-[(1R,2R,4S)-4-ethynyl-4-fluoro-2-phenylcyclohexanecarbonyl]-4-hydroxypiperidin-4-yl}methyl)-6-(4-fluorophenoxy)-3,4-dihydropyrimidin-4-one], the values for the IC50 in assay [1] and in assay [2] were 0.0374 µM and 26.3 nM, respectively.

Take `Nc1c(Oc2ccc(F)c(O)c2)ncn(CC2(O)CCN(C(=O)[C@@H]3CCC(F)(F)C[C@H]3c3ccccc3)CC2)c1=O` [Example 41, 5-amino-3-({1-[(1R,2R)-4,4-difluoro-2-phenylcyclohexane-1-carbonyl]-4-hydroxypiperidin-4-yl}methyl)-6-(4-fluoro-3-hydroxyphenoxy)pyrimidin-4(3H)-one]: the values for the IC50 in assay [1] and in assay [2] were 0.0096 µM and 42 nM, respectively.

Turning to `Nc1c(Oc2ccc(F)cc2)ncn(C[C@@]2(O)CCN(C(=O)[C@@H]3CC[C@](F)(C#Cc4ncccn4)C[C@H]3c3ccccc3)CC2(F)F)c1=O` [Example 167, 5-amino-3-{[(4S)-3,3-difluoro-1-[(1R,2R,4R)-4-fluoro-2-phenyl-4-[2-(pyrimidin-2-yl)ethynyl]cyclohexanecarbonyl]-4-hydroxypiperldin-4-yl]methyl}-6-(4-fluorophenoxy)-3,4-dihydropyrimidin-4-one], the half-inhibitory concentration (IC50) – broadly, the midpoint of a concentration-inhibition curve – in assay [1] was 0.0124 µM; in assay [2], 27.2 nM.

Consider `CO[C@]1(C#Cc2cccnn2)CC[C@@H](C(=O)N2CC[C@](O)(Cn3cnc(Oc4ccc(F)cc4)c(N)c3=O)C(F)(F)C2)[C@H](c2ccccc2)C1` [Example 165, 5-amino-3-{[(4S)-3,3-difluoro-4-hydroxy-1-{[(1R,2R,4R)-4-methoxy-2-phenyl-4-[2-(pyridazin-3-yl)ethynyl]cyclohexyl]carbonyl}piperidin-4-yl]methyl}-6-(4-fluorophenoxy)pyrimidin-4-one], for which the half-inhibitory concentration (IC50) in assay [1] was found to be 0.00415 µM; in assay [2], 5.57 nM.

Regarding `CO[C@]1(C#Cc2nccn2C)CC[C@@H](C(=O)N2CCC(O)(Cn3cnc(Oc4ccc(F)cc4)c(N)c3=O)CC2)[C@H](c2ccccc2)C1` [Example 159, 5-amino-6-(4-fluorophenoxy)-3-[(4-hydroxy-1-{[(1R,2R,4R)-4-methoxy-4-[2-(1-methylimidazol-2-yl)ethynyl]-2-phenytcyclohexyl]carbonyl}piperidin-4-yl)methyl]pyrimidin-4-one], the IC50 is 0.0168 µM in assay [1] and 28.2 nM in assay [2].

Consider `Nc1c(Oc2ccc(F)cc2)ncn(CC2(O)CCN(C(=O)[C@@H]3CC[C@@](F)(Cc4ccccn4)C[C@H]3c3ccccc3)CC2)c1=O` (relative stereo) [Example 126, rel-5-amino-3-[(1-{[(1R,2R,4S)-4-fluoro-2-phenyl-4-(pyridin-2-ylmethyl)cyclohexyl]carbonyl)}-4-hydroxypiperidin-4-yl)methyl]-6-(4-fluorophenoxy)pyrimidin-4-one], for which the results for the IC50 in assay [1] and in assay [2] were 0.17 µM and 79.5 nM, respectively.

`Nc1c(Oc2ccc(C3CCCN3)cc2)ncn(CC2(O)CCN(C(=O)[C@@H]3CCC(F)(F)C[C@H]3c3ccccc3)CC2)c1=O` (stereo partly drawn) [Example 34, 5-amino-3({1-[(1R,2R)-4,4-difluoro-2-phenylcyclohexane-1-carbonyl]-4-hydroxypiperidin-4-yl}methyl)-6-[4-(pyrrolidin-2-yl)phenoxy]pyrimidin-4(3H)-one]: the IC50 was found to be 0.52 µM in assay [1] and 10.8 nM in assay [2].

For `Nc1c(Oc2ccc(CNCC(F)(F)F)cc2)ncn(CC2(O)CCN(C(=O)[C@@H]3CCC(F)(F)C[C@H]3c3ccccc3)CC2)c1=O` [Example 73, 5-amino-3-({1-[(1R,2R)-4,4-difluoro-2-phenylcyclohexane-1-carbonyl]-4-hydroxypiperidin-4-yl}methyl)-6-(4-[[(2,2,2-trifluoromethyl)amino]methyl]phenoxy)pyrimidin-4(3H)-one], the figures for the half-inhibitory concentration (IC50) in assay [1] and in assay [2] were 0.564 µM and 113 nM, respectively.

With `Nc1c(Oc2ccc(C3CCCCN3)cc2)ncn(CC2(O)CCN(C(=O)[C@@H]3CCC(F)(F)C[C@H]3c3ccccc3)CC2)c1=O` (stereo partly drawn) [Example 121, 5-amino-3-({1-[(1R,2R)-4,4-difluoro-2-phenylcyclohexane-1-carbonyl]-4-hydroxypiperidin-4-yl}methyl)-6-[4-(piperidin-2-yl)phenoxy]pyrimidin-4(3H)-one], the 50% inhibitory concentration (IC50) in assay [1] worked out at 0.546 µM; in assay [2] it was 3.08 nM.

For `Nc1c(Oc2ccc(F)c(CO)c2)ncn(CC2(O)CCN(C(=O)[C@@H]3CCC(F)(F)C[C@H]3c3ccccc3)CC2)c1=O` [Example 118, 5-amino-3-({1-[(1R,2R)-4,4-difluoro-2-phenylcyclohexane-1-carbonyl]-4-hydroxypiperidin-4-yl}methyl)-6-[4-fluoro-3-(hydroxymethyl)phenoxy]pyrimidin-4(3H)-one], the half-maximal inhibitory concentration (IC50) in assay [1] came to 0.0413 µM; in assay [2], 33.1 nM.

Consider `Nc1c(Oc2ccc(F)cc2)ncn(CC2(O)CCN(C(=O)[C@@H]3CC[C@](F)(C#Cc4ncccn4)C[C@H]3c3ccccc3)CC2)c1=O` [Example 141, 5-amino-3-[(1-{[(1R,2R,4R)-4-fluoro-2-phenyl-4-[2-(pyrimidin-2-yl)ethynyl]cyclohexyl]carbonyl}-4-hydroxypiperidin-4-yl)methyl]-6-(4-fluorophenoxy)pyrimidin-4-one], for which the IC50 in assay [1] came to 0.0117 µM; in assay [2] it was 41 nM.

For the compound `Nc1c(Oc2ccc(F)cc2)ncn(CC2(O)CCN(C(=O)[C@@H]3CCC(F)(F)C[C@H]3c3ccsc3)CC2)c1=O` [Example 89, 5-amino-3-({1-[(1R,2R)-4,4-difluoro-2-(thiophen-3-yl)cyclohexane-1-carbonyl]-4-hydroxypiperidin-4-yl}methyl)-6-(4-fluorophenoxy)pyrimidin-4(3H)-one], the values for the IC50 in assay [1] and in assay [2] were 0.055 µM and 92 nM, respectively.

With `Nc1c(Oc2ccc(F)cc2)ncn(CC2(O)CCN(C(=O)[C@@H]3CC[C@@](F)(C#Cc4ccc(F)cn4)C[C@H]3c3ccccc3)CC2)c1=O` [Example 134, 5-amino-3-[(1-{[(1R,2R,4S)-4-fluoro-4-[2-(5-fluoropyridin-2-yl)ethynyl]-2-phenylcyclohexyl]carbonyl}-4-hydroxypiperidin-4-yl)methyl]-6-(4-fluorophenoxy)pyrimidin-4-one], the half-maximal inhibitory concentration (IC50) in assay [1] turned out to be 0.0309 µM; in assay [2], 80.7 nM.

In the case of `Nc1c(Oc2ccc3c(c2)CC(O)C3)ncn(CC2(O)CCN(C(=O)[C@@H]3CCC(F)(F)C[C@H]3c3ccccc3)CC2)c1=O` (stereo partly drawn) [Example 48, 5-amino-3-({1-[(1R,2R)-4,4-difluoro-2-phenylcyclohexane-1-carbonyl]-4-hydroxypiperidin-4-yl}methyl)-6-[(2-hydroxy-2,3-dihydro-1H-inden-5-yl)oxy]pyrimidin-4(3H)-one], the results for the IC50 in assay [1] and in assay [2] were 0.072 µM and 62 nM, respectively.

With `Nc1c(Oc2cccc(O)c2)ncn(C[C@@]2(O)CCN(C(=O)[C@@H]3CCC(F)(F)C[C@H]3c3ccccc3)CC2(F)F)c1=O` [Example 104, 5-amino-3-({(4S)-1-[(1R,2R)-4,4-difluoro-2-phenylcyclohexane-1-carbonyl]-3,3-difluoro-4-hydroxypiperidin-4-yl}methyl)-6-(3-hydroxyphenoxy)pyrimidin-4(3H)-one], the figures for the IC50 in assay [1] and in assay [2] were 0.014 µM and 41 nM, respectively.

Take `Nc1c(Oc2ccc3c(c2)CNCC3)ncn(CC2(O)CCN(C(=O)[C@@H]3CCC(F)(F)C[C@H]3c3ccccc3)CC2)c1=O` [Example 26, 5-amino-3-({1-[(1R,2R)-4,4-difluoro-2-phenylcyclohexane-1-carbonyl]-4-hydroxypiperidin-4-yl}methyl)-6-[(1,2,3,4-tetrahydroisoquinolin-7-yl)oxy]pyrimidin-4(3H)-one, hydrochloride]: the results for the half-maximal inhibitory concentration (IC50) in assay [1] and in assay [2] were 0.406 µM and 20 nM, respectively.

Consider `Nc1c(Oc2cccc(O)c2)ncn(CC2(O)CCN(C(=O)[C@@H]3CCC(F)(F)C[C@H]3c3ccccc3)CC2)c1=O` [Example 64, 5-amino-3-({1-[(1R,2R)-4,4-difluoro-2-phenylcyclohexnne-1-carbonyl]-4-hydroxypiperidin-4-yl}methyl)-6-(3-hydroxyphenoxy)pyrimidin-4(3H)-one], for which the IC50 was found to be 0.014 µM in assay [1] and 21 nM in assay [2].

`Nc1c(Oc2ccc3c(c2)CNC3)ncn(CC2(O)CCN(C(=O)[C@@H]3CCC(F)(F)C[C@H]3c3ccccc3)CC2)c1=O` [Example 32, 5-amino-3-({1-[(1R,2R)-4,4-difluoro-2-phenylcyclohexane-1-carbonyl]-4-hydroxypiperidin-4-yl}methyl)-6-[(2,3-dihydro-1H-isoindol-5-yl)oxy]pyrimidin-4(3H)-one]: the IC50 in assay [1] was determined as 0.896 µM; in assay [2], 32 nM.

Take `Nc1c(Oc2ccc(CC(F)F)cc2)ncn(CC2(O)CCN(C(=O)[C@@H]3CCC(F)(F)C[C@H]3c3ccccc3)CC2)c1=O` [Example 38, 5-amino-6-[4-(2,2-difluoroethyl)phenoxy]-3-({1-[(1R,2R)-4,4-difluoro-2-phenylcyclohexane-1-carbonyl]-4-hydroxypiperidin-4-yl}methyl)pyrimidin-4(3H)-one]: the IC50 in assay [1] amounted to 0.128 µM; in assay [2], 63.9 nM.

Consider `Cc1ccnnc1C#C[C@@]1(F)CC[C@@H](C(=O)N2CC[C@](O)(Cn3cnc(Oc4ccc(F)cc4)c(N)c3=O)C(F)(F)C2)[C@H](c2ccccc2)C1` [Example 171, 5-amino-3-{[(4S)-3,3-difluoro-1-[(1R,2R,4R)-4-fluoro-4-[2-(4-methylpyridazin-3-yl)ethynyl]-2-phenylcyclohexanecarbonyl]-4-hydroxypiperidin-4-yl]methyl}-6-(4-fluorophenoxy)-3,4-dihydropyrimidin-4-one], for which the half-inhibitory concentration (IC50) was 0.0168 µM in assay [1] and 23.8 nM in assay [2].
